≈ marks a conversion by molar mass, not a printed value. Calls of active or inactive are those of the source. The calls are words filed in the database; no cut-off is given here.
Experiments:
Rattus norvegicus [1] = experiment: Antinociceptive activity in rat capsaicin model of secondary mechanical hyperalgesia assessed as inhibition of tactile allodynia at 150 mg/kg, po; type: functional, organism-based; parameters: dose 150 mg/kg
[2] = Aqueous solubility of the compound at pH 7; type: physicochemical
[3] = Inhibition of N-type calcium channel by FLIPR assay
[4] = Metabolic stability in rat liver microsomes assessed as compound remaining after 30 mins; type: ADME, Microsome; details: read-out: Stability
[5] = Metabolic stability in human liver microsomes assessed as compound remaining after 30 mins; type: ADME, Microsome; details: read-out: Stability
[6] = Half life in rat at 3 umol/kg, po; type: ADME, organism-based; details: in vivo
Rattus norvegicus [7] = experiment: Volume of distribution at steady state in rat at 3 umol/kg, po; type: ADME, organism-based; details: in vivo
[8] = Plasma clearance in rat at 3 umol/kg, po; type: ADME, organism-based
[9] = Oral bioavailability in rat at 3 umol/kg; type: ADME, organism-based; details: in vivo
[10] = AUC in rat at 3 umol/kg, po; type: ADME, organism-based; details: plasma
Rattus norvegicus [11] = experiment: Antinociceptive activity in rat capsaicin model of secondary mechanical hyperalgesia assessed as inhibition of tactile allodynia at 30 mg/kg, po; type: functional, organism-based; parameters: dose 30 mg/kg
[12] = Half life in rat at 5 umol/kg, iv and 30 umol/kg, po; type: ADME, organism-based; details: in vivo
[13] = Volume of distribution at steady state in rat at 5 umol/kg, iv and 30 umol/kg, po; type: ADME, organism-based; details: in vivo, read-out: Vdss
[14] = Plasma clearance in rat at 5 umol/kg, iv and 30 umol/kg, po; type: ADME, organism-based
[15] = Oral bioavailability in rat at 30 umol/kg; type: ADME, organism-based; details: in vivo
[16] = AUC in rat at 30 umol/kg, po; type: ADME, organism-based; details: plasma

SMILES: NCC1(CC(=O)O)CCCCC1
- inhibition (Rattus norvegicus [1]): Active

SMILES: O=C(CN1CCC(c2ccccc2)(c2ccccc2)C1=O)N1CCN(C(c2ccccc2)c2ccc(F)cc2)CC1 (stereo not drawn)
- solubility [2]: < 25 µM
- IC50 [3]: 450 nM
- pIC50 [3]: 6.35

SMILES: O=C(CN1CCCC(c2ccc(F)cc2)(c2ccc(F)cc2)C1=O)N1CCN(C(c2ccccc2)c2ccccc2)CC1
- solubility [2]: < 25 µM
- IC50 [3]: 4610 nM
- pIC50 [3]: 5.34

SMILES: O=C(CN1CCC(c2ccc(F)cc2)(c2ccc(F)cc2)C1=O)N1CCN(C(c2ccccc2)c2ccccc2)CC1
- solubility [2]: < 25 µM
- IC50 [3]: 830 nM
- pIC50 [3]: 6.08
- remaining at 0.5 h [4]: 2%
- remaining at 0.5 h [5]: 2.5%
- half-life [6]: 7.2 h
- Vdss (Rattus norvegicus [7]): 13.2 L/kg
- CL/F [8]: 36.7 mL/min/kg
- bioavailability [9]: 20.3%
- AUC [10]: 160 ng·h/mL
- inhibition (Rattus norvegicus [11]): Active

SMILES: O=C(CN1CCCC(c2ccccc2)(c2ccccc2)C1=O)N1CCCC(c2ccccc2)(c2ccccc2)C1
- solubility [2]: < 25 µM
- IC50 [3]: 810 nM
- pIC50 [3]: 6.09

SMILES: O=C(CN1CCC(c2ccccc2)(c2ccccc2)C1=O)N1CCN(C(c2ccccc2)c2ccc(Cl)cc2)CC1 (stereo not drawn)
- solubility [2]: < 25 µM
- IC50 [3]: 1010 nM
- pIC50 [3]: 5.99

SMILES: O=C(CN1CCC(c2ccccc2)(c2ccccc2)C1=O)N1CCN(Cc2cccc(C(F)(F)F)c2)CC1
- solubility [2]: < 25 µM
- IC50 [3]: 1030 nM
- pIC50 [3]: 5.99
- remaining at 0.5 h [4]: 0.1%
- remaining at 0.5 h [5]: 0.3%

SMILES: O=C(CN1CCC(c2ccccc2)(c2ccccc2)C1=O)N1CCN(C(c2ccc(F)cc2)c2ccc(F)cc2)CC1
- solubility [2]: < 25 µM
- IC50 [3]: 430 nM
- pIC50 [3]: 6.37

SMILES: O=C(CN1CCCC(c2ccccc2)(c2ccccc2)C1=O)N1CCc2ccc(C(F)(F)F)cc2C1
- solubility [2]: < 25 µM
- IC50 [3]: 4440 nM
- pIC50 [3]: 5.35

SMILES: O=C(CN1CCCC(c2ccccc2)(c2ccccc2)C1=O)N1CCN(C(c2ccccc2)c2ccccc2)CC1
- solubility [2]: < 25 µM
- IC50 [3]: 1380 nM
- pIC50 [3]: 5.86
- remaining at 0.5 h [4]: 0.1%
- remaining at 0.5 h [5]: 0.1%
- half-life [6]: 5.2 h
- Vdss (Rattus norvegicus [7]): 5.8 L/kg
- CL/F [8]: 25 mL/min/kg
- bioavailability [9]: 16.6%
- AUC [10]: 186 ng·h/mL
- inhibition (Rattus norvegicus [11]): Active

SMILES: O=C(CN1CCC(c2ccccc2)(c2ccccc2)C1=O)N1CCN(Cc2ccc(Cl)cc2Cl)CC1
- solubility [2]: < 25 µM
- IC50 [3]: 520 nM
- pIC50 [3]: 6.28

SMILES: O=C(CN1CCCC(c2ccccc2)(c2ccccc2)C1=O)N1CCN(Cc2cccc(C(F)(F)F)c2)CC1
- solubility [2]: < 25 µM
- IC50 [3]: 930 nM
- pIC50 [3]: 6.03
- remaining at 0.5 h [4]: 1.2%
- remaining at 0.5 h [5]: 0.1%
- half-life [12]: 2.7 h
- Vd [13]: 5.9 L/kg
- clearance [14]: 41.7 mL/min/kg
- bioavailability [15]: 15.6%
- AUC [16]: 1000 ng·h/mL

SMILES: O=C(CN1CCCC(c2ccccc2)(c2ccccc2)C1=O)N1CCN(Cc2cccc(Cl)c2)CC1
- solubility [2]: < 25 µM
- IC50 [3]: 1320 nM
- pIC50 [3]: 5.88

SMILES: O=C(CN1CCCC(c2ccccc2)(c2ccccc2)C1=O)N1CCC(C(O)(c2ccccc2)c2ccccc2)CC1
- solubility [2]: < 25 µM
- IC50 [3]: 1740 nM
- pIC50 [3]: 5.76

SMILES: O=C(CN1CCCC(c2ccccc2)(c2ccccc2)C1=O)N1CC(c2ccc(C(F)(F)F)cc2)C1
- solubility [2]: < 25 µM
- IC50 [3]: 3070 nM
- pIC50 [3]: 5.51

SMILES: O=C(CN1CCC(c2ccccc2)(c2ccccc2)C1=O)N1CCN(C(c2ccccc2)c2ccccc2)CC1
- solubility [2]: < 25 µM
- IC50 [3]: 720 nM
- pIC50 [3]: 6.14
- remaining at 0.5 h [4]: 0.4%
- half-life [6]: 5.6 h
- Vdss (Rattus norvegicus [7]): 6.9 L/kg
- CL/F [8]: 26.7 mL/min/kg
- bioavailability [9]: 16.4%
- AUC [10]: 159 ng·h/mL
- inhibition (Rattus norvegicus [11]): Active

SMILES: O=C(CN1CCCC(c2ccccc2)(c2ccccc2)C1=O)N1CCC(c2ccccc2)(c2ccccc2)CC1
- solubility [2]: < 25 µM
- IC50 [3]: 660 nM
- pIC50 [3]: 6.18
- half-life [12]: 6.3 h
- Vd [13]: 11.4 L/kg
- clearance [14]: 45 mL/min/kg
- bioavailability [15]: 50%
- AUC [16]: 2990 ng·h/mL

SMILES: O=C(CN1CCCC(c2ccccc2)(c2ccccc2)C1=O)N1CCN(C(c2ccc(F)cc2)c2ccc(F)cc2)CC1
- solubility [2]: < 25 µM
- IC50 [3]: 2360 nM
- pIC50 [3]: 5.63

SMILES: O=C(CN1CCCC(c2ccccc2)(c2ccccc2)C1=O)N1CCC(c2ccccc2)(c2ccccc2)C1
- solubility [2]: < 25 µM
- IC50 [3]: 2430 nM
- pIC50 [3]: 5.61

SMILES: O=C(CN1CCCC(c2ccc(F)cc2)(c2ccc(F)cc2)C1=O)N1CCN(Cc2cccc(C(F)(F)F)c2)CC1
- solubility [2]: < 25 µM
- IC50 [3]: 1360 nM
- pIC50 [3]: 5.87

SMILES: O=C(CN1CCC(c2ccccc2)(c2ccccc2)C1=O)N1CCN(Cc2ccc(F)cc2)CC1
- solubility [2]: 57 µM (≈ 26.9 µg/mL)
- IC50 [3]: 2220 nM
- pIC50 [3]: 5.65

SMILES: O=C(CN1CCCC(c2ccccc2)(c2ccccc2)C1=O)N1CCN(Cc2ccc(C(F)(F)F)cc2)CC1
- solubility [2]: < 25 µM
- IC50 [3]: 1380 nM
- pIC50 [3]: 5.86

SMILES: O=C(CN1CCC(c2ccc(F)cc2)(c2ccc(F)cc2)C1=O)N1CCN(Cc2cccc(C(F)(F)F)c2)CC1
- solubility [2]: < 25 µM
- IC50 [3]: 1010 nM
- pIC50 [3]: 6

SMILES: O=C(CN1CCCC(c2ccccc2)(c2ccccc2)C1=O)N1CCC(NC(c2ccccc2)c2ccccc2)CC1
- solubility [2]: < 25 µM
- IC50 [3]: 810 nM
- pIC50 [3]: 6.09
- remaining at 0.5 h [4]: < 0.1%
- remaining at 0.5 h [5]: < 0.1%

SMILES: O=C(CN1CCCC(c2ccccc2)(c2ccccc2)C1=O)N1CCC(C(c2ccccc2)c2ccccc2)CC1
- solubility [2]: < 25 µM
- IC50 [3]: 2610 nM
- pIC50 [3]: 5.58

SMILES: O=C(CN1CCC(c2ccccc2)(c2ccccc2)C1=O)N1CCN(Cc2c(Cl)cccc2Cl)CC1
- solubility [2]: < 25 µM
- IC50 [3]: 900 nM
- pIC50 [3]: 6.04

SMILES: O=C(CN1CCCC(c2ccccc2)(c2ccccc2)C1=O)N1CCN(Cc2ccc(Cl)cc2Cl)CC1
- solubility [2]: < 25 µM
- IC50 [3]: 1800 nM
- pIC50 [3]: 5.75

From ChEMBL document CHEMBL1949568, “Discovery of diphenyl lactam derivatives as N-type calcium channel blockers” (Bioorg Med Chem Lett, 2012)
